Laboratory results reported in patent publication US20070027080A1, “Method for treatment of vitiligo” (priority 2005, published 2007).

Legend:
fast spreading vitiligo = assay: Clinical trial: disease activity (arrest of spread) of fast spreading vitiligo, OMP of beta methasone with or without the peptide; type: in vivo, human
From the text: (§1) That this happens was shown in a clinical trial on human volunteers. The above twin objectives were accomplished. FIG. 2a describes two vitiligo patches at the start of treatment of oral steroids, while 2b describes the same patches at the end of 3 months of treatment with oral steroids while at the same time bFGF peptide(s) lotion was applied locally once a day on the lower vitiligo patch for the duration of intake of oral steroids. […] The arrest of the fast spread of the disease was accomplished to the same extent of 88% at the end of 6 months of treatment with oral steroids and the result was not altered by the local application of bFGF peptide(s) lotion (See table 3 for more details)

[1] = test system: vitiligo patches of volunteers; assay: Clinical trial: repigmentation of vitiligo patches, OMP of beta methasone with or without local application of the peptide; type: in vivo, human
From the text: as §1
At the end of 3 months of combinatorial treatment with steroids and local application of bFGF peptide(s) lotion more than 3 fold more patients got pigmented to a marked extent than with steroid alone (See Table 4 for more details). The percentage of volunteers who had moderate and marked rate of repigmentation with combinatorial therapy at the end of three months of treatment is twice than with the steroid therapy alone.

## C[C@H]1C[C@H]2[C@@H]3CCC4=CC(=O)C=C[C@]4(C)[C@@]3(F)[C@@H](O)C[C@]2(C)[C@@]1(O)C(=O)CO [OMP Alone, beta methasone]
Fast spreading vitiligo; At 3 months
  No. of patients where the disease was arrested with time: 12
  Percentage of patients where the disease was arrested: 75%
Fast spreading vitiligo; At 6 months
  No. of patients where the disease was arrested with time: 14
  Percentage of patients where the disease was arrested: 87.50%
Fast spreading vitiligo; At 6 months, listed as oral steroids
  Percentage of patients where the disease was arrested: 88%
[1]; At 3 months
  Marked repigmentation, % of volunteers: 12.5%
  Marked repigmentation, number of volunteers: 2
  Minimal repigmentation, % of volunteers: 68.75%
  Minimal repigmentation, number of volunteers: 11
  Moderate repigmentation, % of volunteers: 18.75%
  Moderate repigmentation, number of volunteers: 3
[1]; At 6 months
  Marked repigmentation, % of volunteers: 25%
  Marked repigmentation, number of volunteers: 4
  Minimal repigmentation, % of volunteers: 50%
  Minimal repigmentation, number of volunteers: 8
  Moderate repigmentation, % of volunteers: 25%
  Moderate repigmentation, number of volunteers: 4
